The values below come from article PMC8216281, “RNA pull-down confocal nanoscanning (RP-CONA) detects quercetin as pri-miR-7/HuR interaction inhibitor that decreases α-synuclein levels” (Nucleic Acids Research, 2021).

Test [1] addresses T1, HuR (Homo sapiens, UniProt Q15717).
T1 construct: gene ELAVL1; mCherry-HuR (HuR open reading frame), overexpressed in HuR KO HEK293T lysate
Kind of test: RP-CONA on-bead confocal assay: inhibition of mCherry-HuR binding to pri-miR-7-1-CTL RNA in cell lysate; confirmed by RNA pull-down/western blot. Format: biochemical.

The target in test [2] is T1, HuR. Kind of test: RP-CONA on-bead confocal assay: inhibition of mCherry-HuR binding to pri-miR-7-1-CTL RNA in cell lysate; confirmed by RNA pull-down/western blot and RIP in cells. Format: biochemical.

T1 sequence (Q15717 2-326): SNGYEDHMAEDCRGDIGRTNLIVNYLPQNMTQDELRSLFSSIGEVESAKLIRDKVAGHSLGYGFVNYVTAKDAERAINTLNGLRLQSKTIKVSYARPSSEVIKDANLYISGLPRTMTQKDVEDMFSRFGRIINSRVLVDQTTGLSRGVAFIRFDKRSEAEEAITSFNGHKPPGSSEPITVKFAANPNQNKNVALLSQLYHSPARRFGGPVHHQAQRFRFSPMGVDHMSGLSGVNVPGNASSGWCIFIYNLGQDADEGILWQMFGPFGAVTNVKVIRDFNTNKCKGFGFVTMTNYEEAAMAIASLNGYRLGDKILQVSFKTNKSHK

In the case of `O=c1cc(-c2ccc(O)c(O)c2)oc2cc(O)cc(O)c12` [luteolin], the IC50 at HuR [1] was 2030 ± 250 nM. Take `O=c1c(O)c(-c2ccc(O)c(O)c2)oc2cc(O)cc(O)c12` [quercetin]: the IC50 at HuR [2] was found to be 2150 ± 160 nM.
